Reference: patent publication US8119563B2, “N-substituted azacycles” (FMC Corporation, priority 2003, dated 2012)

System: tobacco budworm (Heliothis virescens [Fabricius])
Assay: surface-treated diet test, insecticidal activity against tobacco budworm
Type: in vivo
Conditions: 0.25 millimoles of candidate insecticide on the surface of the diet, second instar larvae, five-day exposure; for Percent Mortality: compared to total number of insects infested; for Percent Growth Inhibition: inhibition of insect weight relative to untreated controls
How it was run: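 Wheat germ artificial diet surface-treated with compound from 50 mM DMSO stock diluted 1:7 in 1:1 water/acetone (0.25 millimolar on diet), or lower-rate dilutions; DMSO-only controls. One second-instar larva per well, 25° C, 60% RH, 14 h light, five days; percent weight inhibition versus untreated and percent mortality scored.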

Structure (SMILES) | Percent Mortality | Percent Growth Inhibition
[O-][N+]1(Cc2ccc(Oc3ccccn3)cc2)CCC(O)(C(c2ccc(OC(F)(F)F)cc2)c2ccc(Cl)c(Cl)c2)CC1 (centres unmarked) [Compound 455] | 100% | 100%
[O-][N+]1(Cc2ccc(Oc3ccccn3)cc2)CCC(O)(C(c2ccc(OC(F)(F)F)cc2)c2cccc(Cl)c2Cl)CC1 (centres unmarked) [Compound 456] | 100% | 100%
[O-][N+]1(Cc2ccc(Oc3ccccn3)cc2)CCC(O)(C(c2ccc(OC(F)(F)F)cc2)c2cc(Cl)cc(Cl)c2)CC1 (centres unmarked) [Compound 457] | 100% | 100%
[O-][N+]1(Cc2ccc(Oc3ccccn3)cc2)CCC(O)(C(c2ccc(OC(F)(F)F)cc2)c2cccc(Cl)c2)CC1 (centres unmarked) [Compound 458] | 100% | 100%
[O-][N+]1(Cc2ccc(Oc3ccccn3)cc2)CCC(O)(C(c2ccc(OC(F)(F)F)cc2)c2ccccc2Cl)CC1 (centres unmarked) [Compound 459] | 100% | 100%
[O-][N+]1(Cc2ccc(Oc3ccccn3)cc2)CCC(O)(C(c2ccc(OC(F)(F)F)cc2)c2cc(Cl)ccc2Cl)CC1 (centres unmarked) [Compound 460] | 100% | 100%
Cc1cc(Cl)ccc1C(c1ccc(OC(F)(F)F)cc1)C1(O)CC[N+]([O-])(Cc2ccc(Oc3ccccn3)cc2)CC1 (centres unmarked) [Compound 461] | 100% | 100%
Cc1cc(C(c2ccc(OC(F)(F)F)cc2)C2(O)CC[N+]([O-])(Cc3ccc(Oc4ccccn4)cc3)CC2)ccc1Cl (centres unmarked) [Compound 462] | 100% | 100%
[O-][N+]1(Cc2ccc(Oc3ccccn3)cc2)CCC(O)(C(c2ccc(OC(F)(F)F)cc2)c2ccc(Cl)cc2F)CC1 (centres unmarked) [Compound 463] | 100% | 100%
[O-][N+]1(Cc2ccc(Oc3ccccn3)cc2)CCC(O)(C(c2ccc3c(c2)OC(F)(F)O3)c2ccc3c(c2)OC(F)(F)O3)CC1 (centres unmarked) [Compound 464] | 100% | 100%
COc1cc(C[N+]2([O-])CCC(O)(C(c3ccc(OC(F)(F)F)cc3)c3ccc(OC(F)(F)F)cc3)CC2)ccc1Oc1ccccn1 (centres unmarked) [Compound 465] | 100% | 100%
CC(=O)NCC1(C(c2ccc(C(F)(F)F)cc2)c2ccc(C(F)(F)F)cc2)CC[N+]([O-])(Cc2ccc(Oc3ncccn3)cc2)CC1 (centres unmarked) [Compound 466] | 17% | 100%
[N-]=[N+]=NCC1(C(c2ccc(C(F)(F)F)cc2)c2ccc(C(F)(F)F)cc2)CC[N+]([O-])(Cc2ccc(OCC3CC3)cc2)CC1 (centres unmarked) [Compound 467] | 50% | 100%
CC(=O)OCC1(C(c2ccc(C(F)(F)F)cc2)c2ccc(C(F)(F)F)cc2)CC[N+]([O-])(Cc2ccc(Oc3ncccn3)cc2)CC1 (centres unmarked) [Compound 468] | 17% | 100%
OC(COc1ccc(Cl)cc1)CN1CCC(O)(C(c2ccc(OC(F)(F)F)cc2)c2ccc(OC(F)(F)F)cc2)CC1 (centres unmarked) [Compound 470] | 17% | 89%
OC(COc1cccc(Cl)c1)CN1CCC(O)(C(c2ccc(OC(F)(F)F)cc2)c2ccc(OC(F)(F)F)cc2)CC1 (centres unmarked) [Compound 471] | 0% | 82%
OC(COc1ccccc1Cl)CN1CCC(O)(C(c2ccc(OC(F)(F)F)cc2)c2ccc(OC(F)(F)F)cc2)CC1 (centres unmarked) [Compound 472] | 17% | 93%
OC1(C(c2ccc(OC(F)(F)F)cc2)c2ccc(OC(F)(F)F)cc2)CCN(CCCOc2ccc(Cl)cc2)CC1 [Compound 473] | 100% | 100%
OC1(C(c2ccc(OC(F)(F)F)cc2)c2ccc(OC(F)(F)F)cc2)CCN(CCc2ccc(Cl)cc2)CC1 [Compound 474] | 83% | 100%
OC1(C(c2ccc(OC(F)(F)F)cc2)c2ccc(OC(F)(F)F)cc2)CCN(CCOc2ccc(Cl)cc2)CC1 [Compound 475] | 100% | 100%
OC1(C(c2ccc(OC(F)(F)F)cc2)c2ccc(OC(F)(F)F)cc2)CCN(CCCCOc2ccc(Cl)cc2)CC1 [Compound 476] | 67% | 100%
OC1(C(c2ccc(OC(F)(F)F)cc2)c2ccc(OC(F)(F)F)cc2)CCN(CCOc2ccc(Br)cc2)CC1 [Compound 477] | 100% | 100%

Structure (SMILES) | Percent Mortality | Percent Growth Inhibition
[O-][N+]1(CCOc2ccc(Cl)cc2)CCC(O)(C(c2ccc(OC(F)(F)F)cc2)c2ccc(OC(F)(F)F)cc2)CC1 (centres unmarked) [Compound 478] | 100% | 100%
[O-][N+]1(CCc2ccc(Cl)cc2)CCC(O)(C(c2ccc(OC(F)(F)F)cc2)c2ccc(OC(F)(F)F)cc2)CC1 (centres unmarked) [Compound 479] | 100% | 100%
[O-][N+]1(CCCCOc2ccc(Cl)cc2)CCC(O)(C(c2ccc(OC(F)(F)F)cc2)c2ccc(OC(F)(F)F)cc2)CC1 (centres unmarked) [Compound 480] | 100% | 100%
[O-][N+]1(CCCOc2ccc(Cl)cc2)CCC(O)(C(c2ccc(OC(F)(F)F)cc2)c2ccc(OC(F)(F)F)cc2)CC1 (centres unmarked) [Compound 481] | 100% | 100%
[O-][N+]1(CCOc2ccc(Br)cc2)CCC(O)(C(c2ccc(OC(F)(F)F)cc2)c2ccc(OC(F)(F)F)cc2)CC1 (centres unmarked) [Compound 482] | 100% | 100%
CCON=Cc1ccc(C[N+]2(O)CCC(O)(C(c3ccc(OC(F)(F)F)cc3)c3ccc(OC(F)(F)F)cc3)CC2)cc1.O=S(=O)([O-])CCCO (centres unmarked) [Compound 483] | 100% | 100%
CCOC(C)C(=O)[O-].CCON=Cc1ccc(C[N+]2(O)CCC(O)(C(c3ccc(OC(F)(F)F)cc3)c3ccc(OC(F)(F)F)cc3)CC2)cc1 (centres unmarked) [Compound 484] | 100% | 100%
CCCCC(CC)C(=O)[O-].OC1(C(c2ccc(OC(F)(F)F)cc2)c2ccc(OC(F)(F)F)cc2)CC[N+](O)(Cc2ccc(Oc3ccc(Cl)nn3)cc2)CC1 (centres unmarked) [Compound 485] | 100% | 100%
CCCCC(CC)C(=O)[O-].CCON=Cc1ccc(C[N+]2(O)CCC(O)(C(c3ccc(OC(F)(F)F)cc3)c3ccc(OC(F)(F)F)cc3)CC2)cc1 (centres unmarked) [Compound 486] | 100% | 100%
CCON=Cc1ccc(C[N+]2(O)CCC(O)(C(c3ccc(OC(F)(F)F)cc3)c3ccc(OC(F)(F)F)cc3)CC2)cc1.O=S(=O)([O-])C(F)(F)C(F)(F)C(F)(F)C(F)(F)F (centres unmarked) [Compound 487] | 100% | 100%
O=C(O)CC(O)(CC(=O)O)C(=O)[O-].OC1(C(c2ccc(C(F)(F)F)cc2)c2ccc(C(F)(F)F)cc2)CC[N+](O)(Cc2ccc(Oc3ccc(Cl)nn3)cc2)CC1 (centres unmarked) [Compound 488] | 100% | 100%
NC(=O)CON=Cc1ccc(C[N+]2(O)CCC(O)(C(c3ccc(OC(F)(F)F)cc3)c3ccc(OC(F)(F)F)cc3)CC2)cc1.O=C(O)CC(O)(CC(=O)O)C(=O)[O-] (centres unmarked) [Compound 489] | 100% | 100%
CC1(C)[C@@H]2CCC1(CS(=O)(=O)[O-])C(=O)C2.CCON=Cc1ccc(C[N+]2(O)CCC(O)(C(c3ccc(OC(F)(F)F)cc3)c3ccc(OC(F)(F)F)cc3)CC2)cc1 (centres unmarked) [Compound 490] | 100% | 100%
CCON=Cc1ccc(C[N+]2(O)CCC(O)(C(c3ccc(OC(F)(F)F)cc3)c3ccc(OC(F)(F)F)cc3)CC2)cc1.CCS(=O)(=O)[O-] (centres unmarked) [Compound 491] | 100% | 100%
O=C(O)CC(O)(CC(=O)O)C(=O)[O-].OC1(C(c2ccc(OC(F)(F)F)cc2)c2ccc(OC(F)(F)F)cc2)CC[N+](O)(Cc2ccc(Oc3ccc(Cl)nn3)cc2)CC1 (centres unmarked) [Compound 492] | 100% | 100%
CCON=Cc1ccc(C[N+]2(O)CCC(O)(C(c3ccc(OC(F)(F)F)cc3)c3ccc(OC(F)(F)F)cc3)CC2)cc1.O=C([O-])C1CCCCC1 (centres unmarked) [Compound 493] | 100% | 100%
CCON=Cc1ccc(C[N+]2(O)CCC(O)(C(c3ccc(OC(F)(F)F)cc3)c3ccc(OC(F)(F)F)cc3)CC2)cc1.O=C(O)CC(O)(CC(=O)O)C(=O)[O-] (centres unmarked) [Compound 494] | 100% | 100%
CCON=Cc1ccc(C[N+]2(O)CCC(O)(C(c3ccc(OC(F)(F)F)cc3)c3ccc(OC(F)(F)F)cc3)CC2)cc1.O=S(=O)([O-])C(F)(F)C(F)(F)C(F)(F)C(F)(F)C(F)(F)C(F)(F)C(F)(F)C(F)(F)F (centres unmarked) [Compound 495] | 100% | 100%
O=S(=O)([O-])C(F)(F)C(F)(F)C(F)(F)C(F)(F)C(F)(F)C(F)(F)C(F)(F)C(F)(F)F.OC1(C(c2ccc(OC(F)(F)F)cc2)c2ccc(OC(F)(F)F)cc2)CC[N+](O)(Cc2ccc(Oc3ccccn3)cc2)CC1 (centres unmarked) [Compound 496] | 100% | 100%
OC1(C(c2ccc(OC(F)(F)F)cc2)c2ccc(OC(F)(F)F)cc2)CC[N+](O)(Cc2ccc(Oc3ccccn3)cc2)CC1.[Cl-] (centres unmarked) [Compound 497] | 100% | 100%
CC1(C)[C@H]2CCC1(CS(=O)(=O)[O-])C(=O)C2.OC1(C(c2ccc(OC(F)(F)F)cc2)c2ccc(OC(F)(F)F)cc2)CC[N+](O)(Cc2ccc(Oc3ccccn3)cc2)CC1 (centres unmarked) [Compound 498] | 100% | 100%
